“Also recorded” adds a separate entry of the source.
Key:
[1] = tested on: 6-hydroxydopamine (6OHDA) lesions of the substantia nigra pars compacta (SNc); experiment: 6OHDA lesion of the SNc, bexarotene i.c.v. after lesion; type: in vivo, Sprague-Dawley rats; details: for Effective in rat PD model?: i.c.v. 0.006 mg/kg/day (text: 0.00625), 6OHDA lesioning of the substantia nigra
Procedure: Following the 28 days of treatment, animals were assessed in 3 tests of coordinated motor function (spontaneous locomotion, rotorod and challenging beam) and then tissue was collected to assess tyrosine hydroxylase immunofluorescence in the substantia nigra (SNc) and DAT and VMAT2 in the striatum (STR). […] The subjects for these experiments were male Sprague-Dawley rats purchased from Charles Rivers Laboratories (Hollister, Calif.) weighing 200-225 g upon arrival. Rats were housed in pairs in polypropylene cages within a temperature controlled vivarium maintained on a 12 hr light:dark cycle (lights on 7 am). For the duration of the experiments, animals received free access to food and water. All procedures were conducted in accordance with the NIH Guidelines for the Care and Use of Laboratory Animals and were approved by the Institutional Animal Care and Use Committee (IACUC) at […] Pharmaceuticals. Animals were acclimated to vivarium conditions and handling for a minimum of one week prior to surgery. […] After 6OHDA infusions, an Alzet osmotic pump (Durect Corporation, Cupertino, Calif.) attached to an intracranial guide cannula was implanted subcutaneously between the shoulder blades of each animal. The guide was placed intracerebroventricularly (i.c.v., A/P -0.8 mm, M/L -1.4 mm, D/V -4.5 mm relative to bregma) and was attached to the skull with jeweler's screws and dental acrylic and the incision was closed with staples. […] They were then incubated in 0.9% physiological saline at 37° C. until surgically implanted. The pumps infused at a rate of 0.25 μL/hr for 28 days after implantation. […] After completion of the experiment, a subset of the osmotic pumps was removed. The pumps were weighed and aspirated in order to verify compound delivery. […] (Columbus, Ohio). Animals were placed into the chamber for 15 min and their distance traveled (cm) was recorded. Rotorod testing was conducted on a rotating cylinder (70 mm diameter) with knurled tread to aid in gripping. Animals were placed on the cylinder and it was set to rotate at 1 rpm for 15 sec. If animals fell or jumped from the cylinder within 30 sec., they were replaced and the acclimation period restarted. Once animals successfully remained on the cylinder for the acclimation period, the speed of rotation was increased 1 rpm every 15 sec to a maximum of 10 rpm. The time in seconds that animals remained on the cylinder after the acclimation period and the maximum rpm achieved were recorded. […] The challenging beam test was conducted on a 102 cm long bi-level beam made from ABS plastic. The top, narrower beam gradually tapered from 3.5 cm to 0.7 cm, while the bottom, wider beam gradually tapered from 5 cm to 1.8 cm along the length of the beam. The beam was elevated 23 cm above the table. Animals were placed in groups of 4 into a holding tub and received five training trials. On the first training trial animals were placed at the end of the beam and were required to jump into a holding tub. On successive trials, animals were placed 25, 50, 75 and 100 cm from the end of the beam and were required to traverse the beam and jump into the holding tub at the end. Following training, a single test trial was conducted where each animal was placed at the beginning of the beam and the start latency (time required to move all four feet from their starting locations) and run time (time required to traverse the beam after starting) were recorded. […] Similarly, fixed brains were sectioned (50 μm) through the striatum and labeled for the dopamine transporter. […] After immuno labeling sections were mounted and coverslipped using fluorescent antifade mounting medium ([…], Dako USA, Carpinteria, Calif.). Single optical plane images were obtained using an Olympus BX51 Fluorescent microscope (Olympus America Inc., Center Valley, Pa.) equipped with a digital camera (Retina 2000R, Qimaging, Surrey, BC). Images were acquired using a 4× air objective ([…]. 0.13) with 2× digital magnification. […]

[2] = tested on: rat primary dopaminergic neurons; experiment: Restorative effect after MPP+ injury in primary mesencephalic cultures; type: cell-based
Procedure: BDNF was used as a positive control in this study.
Rat dopaminergic neurons were cultured as described by Schinelli et al., 1988. Briefly pregnant female rats of 15 days gestation were killed by cervical dislocation (Rats Wistar; Janvier) and the foetuses removed from the uterus. The embryonic midbrains were removed and placed in ice-cold medium of Leibovitz (L15; PAN) containing 2% of Penicillin-Streptomycin (PS; Invitrogen) and 1% of bovine serum albumin (BSA; PAN). Only the ventral portions of the mesencephalic flexure were used for the cell preparations as this is the region of the developing brain rich in dopaminergic neurons. The midbrains were dissociated by trypsinisation for 20 min at 37° C. (Trypsin EDTA 1×; PAN) diluted in PBS without calcium and magnesium. The reaction was stopped by the addition of Dulbecco's modified Eagle's medium (DMEM; PAN) containing DNAase I grade II (0.5 mg/ml; PAN) and 10% of fetal calf serum (FCS; Gibco). Cells were then mechanically dissociated by 3 passages through a 10 ml pipette. Cells were then centrifuged at 180×g for 10 min at +4° C. on a layer of BSA (3.5%) in L15 medium. The supernatant was discarded and the cells of pellet were re-suspended in a defined culture medium consisting of Neurobasal (Gibco) supplemented with B27 (2%; Gibco), L-glutamine (0.2 mM; Invitrogen) 2% of PS solution and 10 ng/ml BDNF (PAN) and 1 ng/ml GDNF. (PAN) Viable cells were counted in a Neubauer cytometer using the trypan blue exclusion test. The cells were seeded at a density of 40000 cells/well in 96 well-plates (wells were pre-coated with poly-L-lysine (greiner) and were cultured at 37° C. in a humidified air (95%)/CO2 (5%) atmosphere. Half of the medium was changed every 2 days with fresh medium.
Briefly, on day 6 of culture, the medium was removed and fresh medium was added, without or with MPP+ at 4 μM. […] In all wells, the final concentrations were in 0.1% DMSO. After permeabilization with 0.1% saponin (Sigma), cells were incubated with mouse monoclonal primary against tyrosine hydroxylase antibody (TH, Sigma) to stain specifically dopaminergic neurons. […] The number of TH neurons and total neurite of TH neurons were measured in each well.
For each condition, 2×10 pictures per well were taken in the same condition using InCell Analyzer™ 1000 (GE Healthcare) with 10× magnification. The analyses were automatically done using developer software (GE Healthcare) to measure the total number of TH positive neurons. Two means of 10 pictures were automatically performed by well. Data were expressed in percentage of control condition. […]
For each condition, 10 pictures per well were taken in the same condition using InCell Analyzer™ 1000 (GE Healthcare) with 10× magnification. […] 6 wells per conditions were analyzed. […]

C=C(c1ccc(C(=O)O)cc1)c1cc2c(cc1C)C(C)(C)CCC2(C)C [Bexarotene, bexarotene]
DAT and VMAT2 immunohistochemistry in the striatum ([1]; 0.006 mg/kg/day i.c.v. beginning 72 hours after 6OHDA lesion): significantly increased all measures; also recorded: improved dopamine transporter and VMAT2 expression
tyrosine hydroxylase immunofluorescence in the SNc ([1]; 0.006 mg/kg/day i.c.v. beginning 72 hours after 6OHDA lesion, vs vehicle): significantly improved cell counts, cell size and mean pixel intensity; also recorded: improved tyrosine hydroxylase expression
motor performance (challenging beam, rotorod, spontaneous locomotion) after 6OHDA ([1]; 0.006 mg/kg/day i.c.v. for 28 days beginning 72 hours after lesion): not impaired relative to Sham controls; also recorded: reversed behavioral deficits
Effective in rat PD model? [1]: effective in reversing the neuronal and behavioral deficits
Effective in rat PD model? ([1]; listed as bexarotene): Yes
Effective PD dose (rat), i.c.v. ([1]; i.c.v. continuous infusion, 6OHDA lesion model): 0.00625 mg/kg/day
neurotrophic effect compared with BDNF ([2]; 300 nM, after 24 h MPP+ 4 μM): as high as the one of BDNF
length of TH neurite ([2]; 100 and 300 nM, after 24 h MPP+ 4 μM): significant effect
total number of TH neurons ([2]; all tested concentrations (0.3-300 nM), 48 h, applied after 24 h MPP+ 4 μM): increase
